We go through 9 compounds from US12528826B2, “[1,4]oxazepino[2,3-c]quinolinone derivatives as BCL6 inhibitors” (Cancer Research Technology Limited, priority 2019, dated 2026).

The target of this assay is T1, Trx-6×His-BCL6 (human BCL6 BTB domain covering amino-acid sequence 5-129) (Homo sapiens, UniProt P41182).
T1 construct: made in house
In words: HTRF assay (BCL6 / BCOR peptide). As to conditions: 1 nM Trx-6×His-BCL6, 300 nM BCOR-AF633 peptide, 2 hours incubation at room temperature; read-out: HTRF avg pIC50 (converted). Type of assay: binding. The protocol:
After 2 hours incubation at room temperature the plate was read on a Pherastar FSX (BMG Labtech) plate reader equipped with 337 nm laser excitation filter, a first emission filter at 620 nm and a second emission filter at 665 nm. The % inhibition at each concentration was calculated by normalising FRET ratio to the appropriate high (DMSO with all reagents) and low (DMSO without BCL6) controls.
(In general: In TR-FRET formats the signal depends on donor and acceptor labels being close together.)

On to `CC1CN(c2ncc(Cl)c(Nc3ccc4c(c3)c3c(c(=O)n4C)OCC(F)(F)[C@H](C4CC4)N3)n2)CCS1` (mixture of isomers) [Example 12f, (S)-10-((5-chloro-2-((R)-2-methylthiomorpholino)pyrimidin-4-yl)amino)-2-cyclopropyl-3,3-difluoro-7-methyl-1,2,3,4-tetrahydro-[1,4]oxazepino[2,3-c]quinolin-6(7H)-one:(S)-10-((5-chloro-2-((S)-2-methylthiomorpholino)pyrimidin-4-yl)amino)-2-cyclopropyl-3,3-difluoro-7-methyl-1,2,3,4-tetrahydro-[1,4]oxazepino[2,3-c]quinolin-6(7H)-one (1:1)], for which the IC50 is 9.55 nM.
The result for `Cn1c(=O)c2c(c3cc(Nc4nc(N5CCN6CCCC6C5)ncc4Cl)ccc31)N[C@@H](C1CC1)C(F)(F)CO2` (mixture of isomers) [Example 12h, (S)-10-((5-chloro-2-((S)-hexahydropyrrolo[1,2-a]pyrazin-2(1H)-yl)pyrimidin-4-yl)amino)-2-cyclopropyl-3,3-difluoro-7-methyl-1,2,3,4-tetrahydro-[1,4]oxazepino[2,3-c]quinolin-6(7H)-one:(S)-10-((5-chloro-2-((R)-hexahydropyrrolo[1,2-a]pyrazin-2(1H)-yl)pyrimidin-4-yl)amino)-2-cyclopropyl-3,3-difluoro-7-methyl-1,2,3,4-tetrahydro-[1,4]oxazepino[2,3-c]quinolin-6(7H)-one (1:1)] reads 2.04 nM; that for `Cn1c(=O)c2c(c3cc(Nc4nc(N5CCN6C(=O)CCC6C5)ncc4Cl)ccc31)N[C@@H](C1CC1)C(F)(F)CO2` (mixture of isomers) [Example 12i, (S)-10-((5-chloro-2-((R)-6-oxohexahydropyrrolo[1,2-a]pyrazin-2(1H)-yl)pyrimidin-4-yl)amino)-2-cyclopropyl-3,3-difluoro-7-methyl-1,2,3,4-tetrahydro-[1,4]oxazepino[2,3-c]quinolin-6(7H)-one:(S)-10-((5-chloro-2-((S)-6-oxohexahydropyrrolo[1,2-a]pyrazin-2(1H)-yl)pyrimidin-4-yl)amino)-2-cyclopropyl-3,3-difluoro-7-methyl-1,2,3,4-tetrahydro-[1,4]oxazepino[2,3-c]quinolin-6(7H)-one (1:1)], 1.29 nM; that for `Cn1c(=O)c2c(c3cc(Nc4nc(N5CC(O)CC6(CCC6)C5)ncc4Cl)ccc31)N[C@@H](C1CC1)C(F)(F)CO2` (mixture of isomers) [Example 12j, (S)-10-((5-chloro-2-((R)-8-hydroxy-6-azaspiro[3.5]nonan-6-yl)pyrimidin-4-yl)amino)-2-cyclopropyl-3,3-difluoro-7-methyl-1,2,3,4-tetrahydro-[1,4]oxazepino[2,3-c]quinolin-6(7H)-one:(S)-10-((5-chloro-2-((S)-8-hydroxy-6-azaspiro[3.5]nonan-6-yl)pyrimidin-4-yl)amino)-2-cyclopropyl-3,3-difluoro-7-methyl-1,2,3,4-tetrahydro-[1,4]oxazepino[2,3-c]quinolin-6(7H)-one (1:1)], 2.63 nM.
The result for `CC(=O)N1CC2CCC(C1)N2c1ncc(Cl)c(Nc2ccc3c(c2)c2c(c(=O)n3C)OCC(F)(F)[C@H](C3CC3)N2)n1` (single isomer, unassigned) [Example 7a] reads 0.776 nM; that for `CC(=O)N1C2CCC1CN(c1ncc(Cl)c(Nc3ccc4c(c3)c3c(c(=O)n4C)OCC(F)(F)[C@H](C4CC4)N3)n1)C2` (single isomer, unassigned) [Example 7b], 1.62 nM.
The value for `CC1CC(CC(=O)N2CCC2)CN(c2ncc(Cl)c(Nc3ccc4c(c3)c3c(c(=O)n4C)OCC(F)(F)[C@H](C4CC4)N3)n2)C1` (single isomer, unassigned) [Example 12x16a] was 2.04 nM.
`CC1CC(CC(=O)N2CCC2)CN(c2ncc(Cl)c(Nc3ccc4c(c3)c3c(c(=O)n4C)OCC(F)(F)[C@H](C4CC4)N3)n2)C1` (single isomer, unassigned) [Example 12x16b]: the IC50 was 5.37 nM.
The result for `CC1CC(CC(=O)N2CC(F)(F)C2)CN(c2ncc(Cl)c(Nc3ccc4c(c3)c3c(c(=O)n4C)OCC(F)(F)[C@H](C4CC4)N3)n2)C1` (single isomer, unassigned) [Example 12x17a] reads 3.98 nM.
